Each structure is given as a SMILES string.

The nature of the series: Potency loss of actives infused into isomalt based candy at 300° F. The format is physicochemical.
On to `C=C(C)[C@H]1CC=C(C)CC1` [Limonene, limonene], for which the “Potency loss %: 300° F. for 5 minutes, Infused by Quillaja extract emulsion” value is −37%; the “Potency loss %: 300° F. for 5 minutes, Infused by gum acacia emulsion” value is recorded as −12%; the “Potency loss %: 300° F. for 15 minutes, Infused by Quillaja extract emulsion” value was −69%; the “Potency loss %: 300° F. for 15 minutes, Infused by gum acacia emulsion” value is reported as −17%.
Regarding `CCCCCc1cc(O)c2c(c1)OC(C)(C)[C@@H]1CCC(C)=C[C@@H]21` [THC, tetrahydrocannabinol, reference compound], the “Potency loss %: 300° F. for 5 minutes, Infused by Quillaja extract emulsion” value is reported as −15%; the “Potency loss %: 300° F. for 5 minutes, Infused by gum acacia emulsion” value is −8%; the “Potency loss %: 300° F. for 15 minutes, Infused by Quillaja extract emulsion” value was −25%; the “Potency loss %: 300° F. for 15 minutes, Infused by gum acacia emulsion” value is reported as −16%.
The like results for `C=CC(=C)CCC=C(C)C` [Myrcene, myrcene] were, in that order, −26%, −10%, −51% and −15%.
As for `CCCCCc1cc(O)c2c(c1)OC(C)(C)c1ccc(C)cc1-2` [CBN, cannabinol], the “Potency loss %: 300° F. for 5 minutes, Infused by Quillaja extract emulsion” value is −1%; the “Potency loss %: 300° F. for 5 minutes, Infused by gum acacia emulsion” value is 0%; the “Potency loss %: 300° F. for 15 minutes, Infused by Quillaja extract emulsion” value was −1%; the “Potency loss %: 300° F. for 15 minutes, Infused by gum acacia emulsion” value came to 0%.
As to `C=C(C)[C@@H]1CCC(C)=C[C@H]1c1c(O)cc(CCCCC)cc1O` [CBD, cannabidiol, reference compound], the “Potency loss %: 300° F. for 5 minutes, Infused by Quillaja extract emulsion” value is listed as −5%; the “Potency loss %: 300° F. for 5 minutes, Infused by gum acacia emulsion” value was −3%; the “Potency loss %: 300° F. for 15 minutes, Infused by Quillaja extract emulsion” value is on record as −4%; the “Potency loss %: 300° F. for 15 minutes, Infused by gum acacia emulsion” value is listed as −2%.

These data come from US12144365B2, “Emulsions and derivatives for infusing hydrophobic active agents into an edible product” (priority 2021, dated 2024).
